Reference: patent US8614201B2 (Janssen Pharmaceutica NV, priority 2009, dated 2013)

Target: Human TRPA1 (Homo sapiens, UniProt O75762)
Assay: Assay 1: In vitro cellular testing of TRPA1 modulation (CHO-TREx, Fluo-3 calcium fluorescence, AITC agonist)
Assay type: cell-based
Set-up: expressed in transfected cells; host or cells: CHO-TREx cells (Invitrogen), vector pcDNA4/TO
Conditions: CHO-TREx cells expressing human TRPA1; Fluo-3 fluorescence (FLIPR/Tetra); agonist 15 μM allyl isothiocyanate (AITC); 30 minute antagonist incubation
In short: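 Antagonist potency is the 50% reduction of the AITC (15 μM) calcium response, Hill-fitted against no-antagonist and 10 μM ruthenium red controls. Fluo-3-loaded (4 μM) CHO-TREx cells with tetracycline-inducible human TRPA1 got compound in HEPES saline pH 7.4 for 30 min, usually from 10 μM in three-fold dilutions.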

Chain of Human TRPA1 (O75762 whole entry): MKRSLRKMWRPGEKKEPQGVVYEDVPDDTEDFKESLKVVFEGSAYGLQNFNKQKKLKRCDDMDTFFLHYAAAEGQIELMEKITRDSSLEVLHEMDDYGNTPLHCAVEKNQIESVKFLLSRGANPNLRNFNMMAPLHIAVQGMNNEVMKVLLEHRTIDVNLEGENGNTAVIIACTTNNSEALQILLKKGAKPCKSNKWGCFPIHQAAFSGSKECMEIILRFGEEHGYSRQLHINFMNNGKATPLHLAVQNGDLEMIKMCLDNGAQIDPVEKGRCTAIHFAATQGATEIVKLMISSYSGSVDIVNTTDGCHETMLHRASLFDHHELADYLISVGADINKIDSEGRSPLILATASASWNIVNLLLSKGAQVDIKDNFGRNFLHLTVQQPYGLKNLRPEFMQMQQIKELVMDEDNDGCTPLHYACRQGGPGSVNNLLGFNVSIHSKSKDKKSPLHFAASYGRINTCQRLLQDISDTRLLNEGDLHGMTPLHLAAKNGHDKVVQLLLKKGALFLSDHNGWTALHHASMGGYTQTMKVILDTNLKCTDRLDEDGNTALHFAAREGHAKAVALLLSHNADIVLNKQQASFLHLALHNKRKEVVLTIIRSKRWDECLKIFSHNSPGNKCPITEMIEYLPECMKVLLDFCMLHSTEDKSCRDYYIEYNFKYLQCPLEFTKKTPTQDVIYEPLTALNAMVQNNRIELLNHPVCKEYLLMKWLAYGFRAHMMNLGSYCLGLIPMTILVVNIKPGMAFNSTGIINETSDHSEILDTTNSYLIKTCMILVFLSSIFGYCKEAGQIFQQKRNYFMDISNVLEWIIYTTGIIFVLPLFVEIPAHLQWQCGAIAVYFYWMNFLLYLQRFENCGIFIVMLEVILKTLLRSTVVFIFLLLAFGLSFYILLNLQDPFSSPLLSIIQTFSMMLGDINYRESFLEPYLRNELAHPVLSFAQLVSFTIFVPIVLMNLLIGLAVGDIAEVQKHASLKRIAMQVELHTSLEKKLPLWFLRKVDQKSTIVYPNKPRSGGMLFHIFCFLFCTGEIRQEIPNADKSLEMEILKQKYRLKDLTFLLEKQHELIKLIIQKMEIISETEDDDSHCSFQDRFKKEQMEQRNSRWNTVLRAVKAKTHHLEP

Row | Structure (SMILES) | IC50 [nM]
1 | O=C(NCc1cc(-c2ccc(C(F)(F)F)cc2)nc(OCCN2CCCC2)n1)[C@@H]1CCCN1S(=O)(=O)c1ccc(Cl)s1 [Example 62, 1-(5-Chloro-thiophene-2-sulfonyl)-pyrrolidine-2S-carboxylic acid [2-(2-pyrrolidin-1-yl-ethoxy)-6-(4-trifluoromethyl-phenyl)-pyrimidin-4-ylmethyl]-amide] | 3210
2 | O=C(NCc1cc(-c2ccc(C(F)(F)F)cc2)nc(OCCN2CCCCC2)n1)[C@@H]1CCCN1S(=O)(=O)c1ccc(Cl)s1 [Example 63, 1-(5-Chloro-thiophene-2-sulfonyl)-pyrrolidine-2S-carboxylic acid [2-(2-piperidin-1-yl-ethoxy)-6-(4-trifluoromethyl-phenyl)-pyrimidin-4-ylmethyl]-amide] | 78
3 | O=C(NCc1cc(-c2ccc(C(F)(F)F)cc2)nc(OCCN2CCOCC2)n1)[C@@H]1CCCN1S(=O)(=O)c1ccc(Cl)s1 [Example 64, 1-(5-Chloro-thiophene-2-sulfonyl)-pyrrolidine-2S-carboxylic acid [2-(2-morpholin-4-yl-ethoxy)-6-(4-trifluoromethyl-phenyl)-pyrimidin-4-ylmethyl]-amide] | 234
4 | O=C(NCc1cccc(-c2ccc(C(F)(F)F)cc2)c1)[C@@H]1CCCN1S(=O)(=O)c1ccc(F)cc1 [Example 65, 1-(4-Fluorobenzenesulfonyl)-pyrrolidine-2S-carboxylic acid (4′-trifluoromethylbiphenyl-3-ylmethyl)-amide] | 15
5 | O=C(NCc1cccc(-c2cccc(C(F)(F)F)c2)c1)[C@@H]1CCCN1S(=O)(=O)c1ccc(F)cc1 [Example 66, 1-(4-Fluorobenzenesulfonyl)-pyrrolidine-2S-carboxylic acid (3′-trifluoromethylbiphenyl-3-ylmethyl)-amide] | 253
6 | O=C(NCc1cccc(-c2ccccc2C(F)(F)F)c1)[C@@H]1CCCN1S(=O)(=O)c1ccc(F)cc1 [Example 67, 1-(4-Fluorobenzenesulfonyl)-pyrrolidine-2S-carboxylic acid (2′-trifluoromethylbiphenyl-3-ylmethyl)-amide] | 515
7 | O=C(NCc1cccc(-c2ccc(OC(F)(F)F)cc2)c1)[C@@H]1CCCN1S(=O)(=O)c1ccc(F)cc1 [Example 68, 1-(4-Fluorobenzenesulfonyl)-pyrrolidine-2S-carboxylic acid (4′-trifluoromethoxybiphenyl-3-ylmethyl)-amide] | 26
8 | O=C(NCc1cccc(-c2cccc(OC(F)(F)F)c2)c1)[C@@H]1CCCN1S(=O)(=O)c1ccc(F)cc1 [Example 69, 1-(4-Fluorobenzenesulfonyl)-pyrrolidine-2S-carboxylic acid (3′-trifluoromethoxybiphenyl-3-ylmethyl)-amide] | 181
9 | O=C(NCc1cccc(-c2ccccc2OC(F)(F)F)c1)[C@@H]1CCCN1S(=O)(=O)c1ccc(F)cc1 [Example 70, 1-(4-Fluorobenzenesulfonyl)-pyrrolidine-2S-carboxylic acid (2′-trifluoromethoxybiphenyl-3-ylmethyl)-amide] | 746
10 | O=C(NCc1cccc(-c2ccc(C(F)(F)F)c(F)c2)c1)[C@@H]1CCCN1S(=O)(=O)c1ccc(F)cc1 [Example 71, 1-(4-Fluorobenzenesulfonyl)-pyrrolidine-2S-carboxylic acid (3′-fluoro-4′-trifluoromethylbiphenyl-3-ylmethyl)-amide] | 14
11 | O=C(NCc1cccc(-c2ccc(C(F)(F)F)c(Cl)c2)c1)[C@@H]1CCCN1S(=O)(=O)c1ccc(F)cc1 [Example 72, 1-(4-Fluoro-benzenesulfonyl)-pyrrolidine-2S-carboxylic acid (3′-chloro-4′-trifluoromethyl-biphenyl-3-ylmethyl)-amide] | 17
12 | O=C(NCc1cccc(-c2ccc(OC(F)(F)F)c(F)c2)c1)[C@@H]1CCCN1S(=O)(=O)c1ccc(F)cc1 [Example 73, 1-(4-Fluorobenzenesulfonyl)-pyrrolidine-2S-carboxylic acid (3′-fluoro-4′-trifluoromethoxybiphenyl-3-ylmethyl)-amide] | 4
13 | O=C(NCc1cccc(-c2cc(F)c(OC(F)F)c(F)c2)c1)[C@@H]1CCCN1S(=O)(=O)c1ccc(F)cc1 [Example 74, 1-(4-Fluorobenzenesulfonyl)-pyrrolidine-2S-carboxylic acid (4′-difluoromethoxy-3′,5′-difluorobiphenyl-3-ylmethyl)-amide] | 17
14 | CS(=O)(=O)c1ccc(-c2cccc(CNC(=O)[C@@H]3CCCN3S(=O)(=O)c3ccc(F)cc3)c2)cc1 [Example 75, 1-(4-Fluorobenzenesulfonyl)-pyrrolidine-2S-carboxylic acid (4′-methanesulfonylbiphenyl-3-ylmethyl)-amide] | 771
15 | O=C(NCc1cccc(-c2ccc([N+](=O)[O-])cc2)c1)[C@@H]1CCCN1S(=O)(=O)c1ccc(F)cc1 [Example 76, 1-(4-Fluorobenzenesulfonyl)-pyrrolidine-2S-carboxylic acid (4′-nitrobiphenyl-3-ylmethyl)-amide] | 24
16 | O=C(NCc1cccc(-c2ccc(Br)cc2)c1)[C@@H]1CCCN1S(=O)(=O)c1ccc(F)cc1 [Example 77, 1-(4-Fluoro-benzenesulfonyl)-pyrrolidine-2S-carboxylic acid (4′-bromo-biphenyl-3-ylmethyl)-amide] | 59
17 | NS(=O)(=O)c1ccc(-c2cccc(CNC(=O)[C@@H]3CCCN3S(=O)(=O)c3ccc(F)cc3)c2)cc1 [Example 78, 1-(4-Fluorobenzenesulfonyl)-pyrrolidine-2S-carboxylic acid (4′-sulfamoyl-biphenyl-3-ylmethyl)-amide] | 6050
18 | Cc1ccc(-c2cccc(CNC(=O)[C@@H]3CCCN3S(=O)(=O)c3ccc(F)cc3)c2)cc1 [Example 79, 1-(4-Fluoro-benzenesulfonyl)-pyrrolidine-2S-carboxylic acid (4′-methyl-biphenyl-3-ylmethyl)-amide] | 137
19 | COc1ccc(-c2cccc(CNC(=O)[C@@H]3CCCN3S(=O)(=O)c3ccc(F)cc3)c2)cc1 [Example 80, 1-(4-Fluorobenzenesulfonyl)-pyrrolidine-2S-carboxylic acid (4′-methoxybiphenyl-3-ylmethyl)-amide] | 410
20 | O=C(NCc1cccc(-c2ccc(OCC(F)(F)F)cc2)c1)[C@@H]1CCCN1S(=O)(=O)c1ccc(F)cc1 [Example 81, 1-(4-Fluorobenzenesulfonyl)-pyrrolidine-2S-carboxylic acid [4′-(2,2,2-trifluoroethoxy)-biphenyl-3-ylmethyl]-amide] | 93
21 | CSc1ccc(-c2cccc(CNC(=O)[C@@H]3CCCN3S(=O)(=O)c3ccc(F)cc3)c2)cc1 [Example 82, 1-(4-Fluoro-benzenesulfonyl)-pyrrolidine-2S-carboxylic acid (4′-methylsulfanyl-biphenyl-3-ylmethyl)-amide] | 50
22 | O=C(NCc1cccc(-c2ccc(Cl)nc2)c1)[C@@H]1CCCN1S(=O)(=O)c1ccc(F)cc1 [Example 83, 1-(4-Fluoro-benzenesulfonyl)-pyrrolidine-2S-carboxylic acid 3-(6-chloro-pyridin-3-yl)-benzylamide] | 73
23 | COc1ccc(-c2cccc(CNC(=O)[C@@H]3CCCN3S(=O)(=O)c3ccc(F)cc3)c2)cn1 [Example 84, 1-(4-Fluorobenzenesulfonyl)-pyrrolidine-2S-carboxylic acid 3-(6-methoxypyridin-3-yl)-benzylamide] | 340
